# Results as given in patent publication US6465483B1, “Annelated dihydropyridines and the use thereof for preparing pharmaceutical preparations” (Boehringer Ingelheim GmbH, priority 1993, dated 2002).
# Legend:
# RBL-2H3-cells = test: Antigen (DNP-BSA)-induced activation of sensitised RBL-2H3-cells, fluorometric cytoplasmic calcium measurement; assay type: cell-based, rat; details: 10 μM
# Experimental: Individual RBL-2H3-cells (a tumour cell line related to the mast cells) adhering to glass slides are used.
# The cultivation and attachment of the RBL-2H3-cells are carried out by the method described by HIDE and BEAVEN (1991). In order to sensitise the adhesive RBL-2H3-cells the cells are incubated for 2 hours at ambient temperature with a 1:2000 diluted commercial gammaglobulin E-solution against a dinitrophenol-bovine serum albumin complex (DNP-BSA-antigen). The cells are then washed. By the addition of 0.1 ml of DNP-BSA-solution (10 μg/ml) there is a massive immunological cell activation which is mediated by a cytoplasmic Ca^2+-overload. The fluorometric calcium measurement in the cytoplasm of individual adhering RBL-2H3-cells is carried out analogously to the method described by KUDO and OGURA (1986) for neuronal cells, which is also explained hereinbefore in this specification.
# The comparison used in these investigations is (10 μM) chromoglycate which brings about an approximately 50% inhibition of the antigen-induced cell activation.
# [1] = system: unselective cation channels (UCC); test: Inhibition of Ca2+ entry through unselective cation channels after Thapsigargin stimulation, fura-2-charged RBL-hm 1 cells; assay type: cell-based, rat; details: Table 5, 0.1 μM Thapsigargin, test substance 10^−5 M
# Experimental: For screening purposes, fura-2-charged adhesive RBL-hm 1 cells are stimulated with 0.1 μM Thapsigargin in a Ca^2+-free incubation medium. After 4 minutes, extracellular Ca^2+ is restored to a concentration of 1.5 mM and, using the fura-2-fluorescence, the excessive increase in the cytoplasmic Ca^2+-concentration caused by a massive transmembranal Ca^2+-entry through unselective cation channels is recorded.
# The kinetics of the cytoplasmic Ca^2+-concentration is recorded continuously as a concentration/time curve after the cell activation stimulated by Thapsigargin (0.1 μM). The curves of two activated cell cultures are compared in the presence and absence of 10 μM test substance. The area under these curves (area under the curve=AUC) is integrated and recorded as a measurement of cell activation. The inhibitory potency of the UCC-blockers tested is determined using the following equation: [formula]
# AUCinh area under the curve recorded in the presence of the stimulant plus 10 μM inhibitory test substance.
# AUC control=area under the curve which is recorded only after the addition of the stimulant.
# The uniform concentration of the test substances is 10^−5 mol or 10^−6 mol)
compound,measurement,setting,value
O=C(O)c1cc(=O)c2c(OCC(O)COc3cccc4oc(C(=O)O)cc(=O)c34)cccc2o1 [chromoglycate],inhibition of the antigen-induced cell activation,RBL-2H3-cells,approximately 50%
"COc1cc2c(cc1OC)C(C(C(=O)N(Cc1ccccc1)Cc1ccccc1)c1ccsc1)=NCC2 (racemic) [(R,S)-(3,4-Dihydro-6,7-dimethoxyisoquinolin-1-yl)-2-(3-thienyl)-N,N-dibenzyl-acetamide]","% H (10^−5 M), percentage inhibition of UCC after Thapsigargin stimulation",[1],90.9%
